Data on 47 substances can be found in patent US10524472B2, “Elicitor peptides having disrupted hypersensitive response box and use thereof” (Plant Health Care, Inc., priority 2014, dated 2020).

The test system of this assay is tobacco mosaic virus (TMV). The assay can be described thus: Induction of resistance to tobacco mosaic virus in tobacco. The note with it: for efficacy on covered leaves, systemic immune response: covered leaf; for Effectiveness Covered (%) (decline in TMV lesions vs UTC, systemic response) / Effectiveness Uncovered (%) (decline in TMV lesions vs UTC, local response): TMV 3 days post-treatment, scored 3 days after inoculation; for TMV response / effectiveness against TMV infection (summary of Table 22): foliar spray. The assay is classed as in vivo.

Marks after values point to notes of the source that are not given here.

With GGLTLTGVDQKLMKILNALVQ (P25-9D), the “efficacy on covered leaves, systemic immune response” value (from here on “efficacy on covered leaves”) is “reduced efficacy on covered leaves”. For the same substance, for the setting “spray 20 ug/ml”, the “Effectiveness Covered (%) (decline in TMV lesions vs UTC, systemic response)” value (shortened to “Effectiveness Covered (%)”) came to 55% and the “Effectiveness Uncovered (%) (decline in TMV lesions vs UTC, local response)” value (“Effectiveness Uncovered (%)” for short) is 78* %.

For KPNDSQSNIAKLISALI (P15-62), under “spray 20 ug/ml”, the “Effectiveness Covered (%)” value was −122% and the “Effectiveness Uncovered (%)” value is given as 94* %.

In the case of KPNDSQSNIAKLISALIMSLSQ (P15b-21S), under “spray 20 ug/ml”, the “Effectiveness Covered (%)” value was 97* % and the “Effectiveness Uncovered (%)” value is reported as 100* %.

Turning to KPNDSQSNIAKSISALIMSLLQ (P15b-12S), where the note is “spray 20 ug/ml”, the “Effectiveness Covered (%)” value stood at 47% and the “Effectiveness Uncovered (%)” value is given as 76* %.

As to PSPFTQMLMHIVGEDLQAQN (P6a-15D), for the setting “spray 20 ug/ml”, the “Effectiveness Covered (%)” value is 74* % and the “Effectiveness Uncovered (%)” value was 74* %.

For PSPFTQMLMHSVGEILQAQN (P6a-11S), where the note is “spray 20 ug/ml”, the “Effectiveness Covered (%)” value was 88* % and the “Effectiveness Uncovered (%)” value was 71* %.

On to “QAGPQSANKTGNVDDANNQDPAQALAQLLEDLV (P14-22A,26A)”, for which, where the note is “spray 10 ug/ml”, the “Effectiveness Covered (%)” value is 93* % and the “Effectiveness Uncovered (%)” value is given as 92* %.

For “QAGPQSANKTGNVDDANNQDPAQALLQLLEDLV (P14-22A,26L)”, for the setting “spray 20 ug/ml”, the “Effectiveness Covered (%)” value is 62% and the “Effectiveness Uncovered (%)” value turned out to be 48%.

Consider “QAGPQSANKTGNVDDANNQDPEQALLQLLEDLV (P14-22E,26L)”, for which, where the note is “spray 20 ug/ml”, the “Effectiveness Covered (%)” value was 84* % and the “Effectiveness Uncovered (%)” value is reported as 61* %.

Turning to “QAGPQSANKTGNVDDANNQDPE_ALAQLLEDLV (QAGPQSANKTGNVDDANNQDPEALAQLLEDLV; P14-22E,26A)”, under “spray 20 ug/ml”, the “Effectiveness Covered (%)” value is reported as 88* % and the “Effectiveness Uncovered (%)” value is reported as 89* %.

Take “QAGPQSANKTGNVDDANNQDPLQAAAQLLEDLV (P14-22L,25-26A)”: where the note is “spray 10 ug/ml”, the “Effectiveness Covered (%)” value was 75* % and the “Effectiveness Uncovered (%)” value is listed as 87* %.

Turning to “QAGPQSANKTGNVDDANNQDPLQALAQLAEDLV (P14-22L,26,29A)”, under “spray 10 ug/ml”, the “Effectiveness Covered (%)” value is listed as 70* % and the “Effectiveness Uncovered (%)” value was 85* %.

On to “QAGPQSANKTGNVDDANNQDPLQALAQLLEDLV (P14-22L,26A)”, for which, where the note is “spray 20 ug/ml”, the “Effectiveness Covered (%)” value is 83* % and the “Effectiveness Uncovered (%)” value is given as 72* %.

As to “QAGPQSANKTGNVDDANNQDPLQALLQLAEDAV (p14-22L,29,32A) [P14-22L,28,32A]”, where the note is “spray 10 ug/ml”, the “Effectiveness Covered (%)” value was 37* % and the “Effectiveness Uncovered (%)” value was 71* %.

As to “QAGPQSANKTGNVDDANNQDPLQALLQLLEDAA (P14-22L,32-33A)”, where the note is “spray 10 ug/ml”, the “Effectiveness Covered (%)” value is 69* % and the “Effectiveness Uncovered (%)” value is 91* %.

“QAGPQSANKTGNVDDANNQDPMQALMQLLED (P14-dc2)”: under “spray 10 ug/ml”, the “Effectiveness Covered (%)” value is given as 56% and the “Effectiveness Uncovered (%)” value is 76* %.

On to “QAGPQSANKTGNVDDANNQDPMQALMQLLEDL (P14-dc1)”, for which, for the setting “spray 10 ug/ml”, the “Effectiveness Covered (%)” value is on record as 46% and the “Effectiveness Uncovered (%)” value is reported as 65* %.

As to QDPAQALEQLLEDLVKSLK (p14f-17S), for the setting “spray 20 ug/ml”, the “Effectiveness Covered (%)” value was 84* % and the “Effectiveness Uncovered (%)” value is recorded as 94* %.

As to QDPMQADMQLLEDLVKLLK (P14d-7D), where the note is “spray 20 ug/ml”, the “Effectiveness Covered (%)” value is listed as 55* % and the “Effectiveness Uncovered (%)” value was 71* %.

With QDPMQALMQDLEDLVKLLK (P14d-10D), where the note is “spray 20 ug/ml”, the “Effectiveness Covered (%)” value is on record as 84* % and the “Effectiveness Uncovered (%)” value is 84* %.

Turning to QDPMQALMQLDEDLVKLLK (P14d-11D), where the note is “spray 20 ug/ml”, the “Effectiveness Covered (%)” value is on record as 87* % and the “Effectiveness Uncovered (%)” value is recorded as 81* %.

As for QDPMQALMQLLEDDVKLLK [P14d-14D], under “spray 20 ug/ml”, the “Effectiveness Covered (%)” value turned out to be 35% and the “Effectiveness Uncovered (%)” value is 84* %.

As to QDPMQALMQLLEDLDKLLK (P14d-15D), where the note is “spray 20 ug/ml”, the “Effectiveness Covered (%)” value is listed as 74* % and the “Effectiveness Uncovered (%)” value is 87* %.

On to QDPMQALMQLLEDLVKDLK (P14d-17D), for which, under “spray 20 ug/ml”, the “Effectiveness Covered (%)” value was 65* % and the “Effectiveness Uncovered (%)” value is 68* %.

QDPMQALMQLLEDLVKLDK (P14d-18D): the “TMV response / effectiveness against TMV infection (summary of Table 22)” value (“TMV response / effectiveness” below) is “weaker TMV responses”. Also, for the setting “spray 20 ug/ml”, the “Effectiveness Covered (%)” value is recorded as 32% and the “Effectiveness Uncovered (%)” value was 52%.

QDPMQASMQLLEDLVKLLK (P14d-7S): the “efficacy on covered leaves” value is on record as “reduced efficacy on covered leaves”. Moreover, for the setting “spray 20 ug/ml”, the “Effectiveness Covered (%)” value was 23% and the “Effectiveness Uncovered (%)” value is on record as −112%.

As to QQPIDRQTIEQMAQLLAQLL (P18-8), for the setting “spray 20 ug/ml”, the “Effectiveness Covered (%)” value is 78* % and the “Effectiveness Uncovered (%)” value worked out at 55%.

Consider SEEEEEALEQLLEDLVKLL (P14-31), for which, under “spray 20 ug/ml”, the “Effectiveness Covered (%)” value is 87* % and the “Effectiveness Uncovered (%)” value is recorded as 85* %.

Consider SEEEEEDAQLLAQLLKSLL (P18min-7D), for which the “efficacy on covered leaves” value was “reduced efficacy on covered leaves” and the “TMV response / effectiveness” value is on record as “weaker TMV responses”. Also, where the note is “spray 20 ug/ml”, the “Effectiveness Covered (%)” value amounted to 29% and the “Effectiveness Uncovered (%)” value worked out at 26%.

As to SEEEEEEEIAKLISALIESLL (P15-60), under “spray 20 ug/ml”, the “Effectiveness Covered (%)” value was found to be 13% and the “Effectiveness Uncovered (%)” value was found to be 55%.

With “SEEEEEEEIAKLIS_LIESLL (SEEEEEEEIAKLISLIESLL; P15-61)”, where the note is “spray 20 ug/ml”, the “Effectiveness Covered (%)” value was found to be 7% and the “Effectiveness Uncovered (%)” value is 55* %.

SEEEEEEIAKLISALI (P15-63): for the setting “spray 20 ug/ml”, the “Effectiveness Covered (%)” value is recorded as 74* % and the “Effectiveness Uncovered (%)” value is listed as 90* %.

SEEEEELAQLLAQLL (P18-9): for the setting “spray 20 ug/ml”, the “Effectiveness Covered (%)” value is reported as 52% and the “Effectiveness Uncovered (%)” value is reported as 65* %.

Turning to SEEEEELAQLSAQLLKSLL (P18min-11S), the “TMV response / effectiveness” value is reported as “weaker TMV responses”. Where the note is “spray 20 ug/ml”, the “Effectiveness Covered (%)” value is −274% and the “Effectiveness Uncovered (%)” value was −90%.

As for SEEEEELEQLLEDLV (P14-39), for the setting “spray 20 ug/ml”, the “Effectiveness Covered (%)” value is recorded as 66* % and the “Effectiveness Uncovered (%)” value was 72* %.

For the substance SEEEEELKALLKSIARLL (P19min-13S), the “TMV response / effectiveness” value is listed as “poor immune activation”. The “TMV response / effectiveness” value (listed as P19 min-135) is listed as “weaker TMV responses”. Under “spray 20 ug/ml”, the “Effectiveness Covered (%)” value was −70% and the “Effectiveness Uncovered (%)” value is reported as 35%.

With SEEEEELKALSKLIARLL (P19min-11S), for the setting “spray 20 ug/ml”, the “Effectiveness Covered (%)” value worked out at 45% and the “Effectiveness Uncovered (%)” value is listed as 71* %.

Take SEEEEELKASLKLIARLL (P19min-10S): for the setting “spray 20 ug/ml”, the “Effectiveness Covered (%)” value is recorded as 94* % and the “Effectiveness Uncovered (%)” value is 81* %.

As for SEEEEELLQLLEDLV (P14-41), under “spray 20 ug/ml”, the “Effectiveness Covered (%)” value is on record as 61* % and the “Effectiveness Uncovered (%)” value is on record as 86* %.

Consider “SEEEEELQKLLK_ILEALV (SEEEEELQKLLKILEALV; P25-9)”, for which, under “spray 20 ug/ml”, the “Effectiveness Covered (%)” value was 87* % and the “Effectiveness Uncovered (%)” value is listed as 68%.

As for SEEEEELQQLLKLFSEILQ (P3-10), under “spray 20 ug/ml”, the “Effectiveness Covered (%)” value is recorded as 95* % and the “Effectiveness Uncovered (%)” value is 94* %.

“SEEEEELTGVLQKLLK_ILE (SEEEEELTGVLQKLLKILE; P25-12)”: under “spray 20 ug/ml”, the “Effectiveness Covered (%)” value turned out to be 58% and the “Effectiveness Uncovered (%)” value is 77* %.

For the substance SEEEEELTGVLQKLSKILEAL (P25min-15S), where the note is “spray 20 ug/ml”, the “Effectiveness Covered (%)” value is listed as 74* % and the “Effectiveness Uncovered (%)” value is 81* %.

Turning to SEEEEELTLTGVLQKLLKIL (P25-14), the “TMV response / effectiveness” value is “weaker control of TMV infection”. Moreover, under “spray 20 ug/ml”, the “Effectiveness Covered (%)” value is reported as −87% and the “Effectiveness Uncovered (%)” value came to 52%.

Regarding SEEEELDQLLSQLI (P4-115), under “spray 20 ug/ml”, the “Effectiveness Covered (%)” value is on record as 87* % and the “Effectiveness Uncovered (%)” value is recorded as 87* %.

As to SEEEELDQLLTQLI (P1-31), the “TMV response / effectiveness” value is listed as “anti-TMV activity”. Where the note is “spray 20 ug/ml”, the “Effectiveness Covered (%)” value is 88* % and the “Effectiveness Uncovered (%)” value is on record as 95* %.

In the case of “SQGISEKQLADQLLASQLIAQALLQP (P4-i10A,14A,18A)”, for the setting “spray 10 ug/ml”, the “Effectiveness Covered (%)” value worked out at 69% and the “Effectiveness Uncovered (%)” value is 75%.
